Earlier results on one compound are cited in patent US20260284070A1, “Ophthalmic Solution of Brinzolamide” (Micro Labs Limited, priority 2023, published 2026).

For this data set the following is noted: physiological pH (pH 6.0 to 7.5).

In the case of `CCN[C@H]1CN(CCCOC)S(=O)(=O)c2sc(S(N)(=O)=O)cc21` [Brinzolamide, (R)-(+)-4-Ethylamino-2-(3-methoxypropyl)-3,4-dihydro-2H-thieno[3,2-e]-1,2-thiazine-6-sulfonamide-1,1-dioxide], the Solubility entry is recorded as “very limited solubility”.
